Assay results from patent publication JP2011135835A, “ダンマラン系トリテルペン類含有組成物及び呈味改善方法” (Lion Corp, priority 2009, dated 2011).

Assay: physchem
Format: physicochemical
Conditions: for residual rate: after standing 3 weeks at 40°C, 75% relative humidity, HPLC

CC(C)=CCC[C@](C)(O)[C@H]1CC[C@]2(C)[C@@H]1[C@H](O)C[C@@H]1[C@@]3(C)CC[C@H](O)C(C)(C)[C@@H]3CC[C@]12C [PPD, プロトパナキサジオール]
residual rate: 検出されなかった

CC1(C)CCC[C@](C)([C@H]2CC[C@]3(C)[C@@H]2[C@H](O)C[C@@H]2[C@@]4(C)CC[C@H](O)C(C)(C)[C@@H]4[C@@H](O)C[C@]23C)O1 [PT, パナキサトリオール]
remaining at 504 h: 99.8%

CC(C)=CCC[C@](C)(O)[C@H]1CC[C@]2(C)[C@@H]1[C@H](O)C[C@@H]1[C@@]3(C)CC[C@H](O)C(C)(C)[C@@H]3[C@@H](O)C[C@]12C [PPT, プロトパナキサトリオール]
residual rate: 検出されなかった

CC1(C)CCC[C@](C)([C@H]2CC[C@]3(C)[C@@H]2[C@H](O)C[C@@H]2[C@@]4(C)CC[C@H](O)C(C)(C)[C@@H]4CC[C@]23C)O1 [PD, パナキサジオール]
remaining at 504 h: 99.7%
